# Read-outs that look alike come from different tables or passages of the source.
# What was measured:
# [1] = system: A549 lung carcinoma cells; experiment: MTT-reduction cell viability assay, dark and after LED irradiation; assay type: cell-based, Human; conditions: for PI (Phototoxic index), 405 nm: IC50 dark / IC50 at 405 nm; for PI (Phototoxic index), 470 nm: IC50 dark / IC50 at 470 nm
# Protocol: Human lung carcinoma A549 cell line (from ATCC, Manassas, VA, USA) was cultured in high glucose Dubecco’s Modified Eagle’s Medium (DMEM) supplemented with 5% fetal bovine serum (FBS) as well as L-glutamine and penicillin/streptomycin at 37 °C in a humidified atmosphere of 95% air and 5% CO2.
# Cell metabolic activity was analyzed by an MTT-reduction assay to assess the A549 cell sensitivity to the complexes. Thus, 10^5 cells(A549)/mL were seeded in flat-bottom 96-well plates (100 µL/well) in complete medium and allowed to attach for 24 h. A stock solution of the complexes was prepared in DMSO 0.1 M. Subsequent dilutions of the different stock solutions from the complexes using DMEM were prepared. 100 µL/well were added to the cells, in concentrations ranging from 0.2 to 50 µM. each concentration was performed by quadruplicate. After 5 h of incubation with the complexes, duplicates of each concentration were irradiated with an LED lamp upon 405 and 470 nm with a light dose of 6.5 and 15.1 J/m^2, respectively, for 10 min. Before irradiation, culture medium was replaced with fresh medium in order to avoid interference with non-internalized complexes. Cells were cultured for a further 19 h. 10 µL of MTT (5 mg ml^−^1 in PBS) were added to each well and then further 2 h incubation was allowed at 37 °C. Finally, after removing the culture medium, DMSO (100 µL/well) was added to dissolve the formazan crystals. Multiskan EX 96-well multiscanner autoreader (Thermo Fisher Scientific, Waltham, MA, USA) was used to determine the optical density at 550 nm and IC50 was calculated. Each experiment was repeated at least three independent analyses.
# [2] = Distribution coefficient n-octanol/water, shake-flask method; assay type: physicochemical; conditions: pH = 7.4, n-octanol/phosphate buffered saline, 298 K
# Protocol: The n-octanol-water coefficient of complexes 1–4 and L1 and L2 were determined using a shake-flask method. A mixture of buffered-saline distilled water (100 mL, phosphate buffer [PO4^3−] = 10 mM, [NaCl] = 0.15 M, pH 7.4) and n-octanol (100 mL) was shaken for 72 h to allow saturation of both phases. Approximately 0.5 mg of the complexes or ligands werw dissolved in 5 mL of the aqueous phase and 5 mL of the organic phase were added, mixing for 10 min. The resulting emulsion was centrifuged to separate the phases. The concentration of the compounds in each phase was determined using UV absorbance spectroscopy at 298 K. logP7.4 was defined as log{[compound(organic phase)]/[compound(aqueous phase)]}.
# [3] = system: A549 cells; experiment: Cell morphology by phase contrast (inverted) microscopy; assay type: cell-based, Human; conditions: A549, 10 to 20 µM, 20 h
# Protocol: Alterations in cell morphology and behavior as a consequence of the exposition to ligands and complexes were analyzed using an inverted microscope (Figure 5). […] Oppositely, complexes 1–4 were able to modify cell aspect. All of them triggered cytoplasmic vesicle formation, which was more remarkable for compounds 3 and 4, containing the bzq orthometallated ligand. Moreover, even though cell division still took place in the presence of all of them, it became patently clear that they have cytotoxic properties, being more evident for complexes 1 and 2.
# Figure 5 Phase contrast microscopy images of A549 cells treated with L1, L2 and 1–4 at concentrations between 10 and 20 µM for 20 h. Black arrows point to apoptotic cells. Little black triangles show examples of cells containing cytoplasmic vesicles.
# [4] = system: A549 cells; experiment: Cytotoxicity assay by flow cytometry, Annexin V-DY634 / 7-AAD double staining; assay type: cell-based, Human; conditions: A549, dark and irradiation at 470 nm
# Protocol: Necrotic and apoptotic cell death was determined by measuring cell membrane permeabilization and phosphatidylserine exposure on cell surface in A549 cells, respectively. 10^5 cells/well were seeded in flat-bottom, 12-well plates (1 mL/well) in complete medium and left 12 h to attach to the plates. […] After 19 h, cells were trypsinized and thereafter resuspended in 50 μL of a mixture of DY634-conjugated Annexin V, Annexin-binding buffer (ABB; 140 mM NaCl, 2.5 mM CaCl2, 10 mM HEPES/NaOH pH 7.4) and 7-amino-actinomycin D (7-AAD). After incubation for further 15 min at rt in dark, cells were diluted to 300 μL with ABB. A total of 10,000 cells were acquired on a FACSCalibur^TM flow cytometer (BD Biosciences, San Jose, CA, USA) and cell death analysis was performed using Flowjo 7.6.1 (Becton Dickinson (BD), Franklin Lakes, NJ, USA), CellQuest Pro (BD Biosciences) and GraphPad Prism 8 (GraphPad Software, San Diego, CA, USA) softwares.
# [5] = system: A549 cells; experiment: ROS production measurement with dihydroethidium (DHE) by flow cytometry; assay type: cell-based, Human; conditions: A549, IC50 to ¼ IC50, dark and irradiation at 470 nm for 10 min
# Protocol: Cells were incubated with the complex for 5 h and subsequently half of the experimental points were irradiated at 470 nm after replacing culture medium. Upon 19 h, cells were trypsinized, resuspended in 100 μL of a mixture of PBS and 2 μM of the dihydroethidium (DHE) probe, incubated at 37 °C in the dark for 15 min and diluted to 300 μL with PBS. Lastly, a total of 10,000 events were acquired on a FACSCalibur^TM flow cytometer and data were analyzed using the aforementioned softwares
# [6] = system: A549 cells; experiment: Cell cycle analysis, propidium iodide flow cytometry; assay type: cell-based, Human; conditions: for Cell distribution G0-G1 / Cell distribution G2-M / Cell distribution S: 5 h + 19 h
# Protocol: 4 × 105. […] Thereupon, cell culture was changed, and half of the experimental points were irradiated at 470 nm. After 19 h in culture, cells were trypsinized, washed twice with PBS, fixed with cold 70% ethanol (v/v) by vortexing and stored at −20 °C for at least 24 h. After that, cells were wash with cold PBS and stained with 500 μL of a solution of propidium iodide (PI) and RNase (Immunostep, Salamanca, Spain) for 20 min at rt in the dark. Finally, a total of 10,000 cells were acquired on a FACSCalibur^TM flow cytometer and data were analyzed using the aforementioned softwares.
# [7] = 5 h incubation, irradiation 10 min at 405 nm (6.5 J/m^2), further 19 h, read-out: IC50(λexc 405 nm)
# [8] = 5 h incubation, irradiation 10 min at 470 nm (15.1 J/m^2), further 19 h, read-out: IC50(λexc 470 nm)
# [9] = 24 h incubation, no irradiation, read-out: IC50 (DARK)
# [10] = Homo sapiens, light or radiation study, 24 h incubation, no irradiation, read-out: IC50 (DARK)
# [11] = A549, irradiation at 470 nm, 0.0975 μM (25% IC50)
Compound,"IC50 [1, 7] [nM]","IC50 [1, 8] [nM]","IC50 [1, 9] [nM]","PI (Phototoxic index), 405 nm [1]","PI (Phototoxic index), 470 nm [1]",logP(Oct/W) [2],"IC50 [1, 10] [nM]",logP [2],Alterations in cell morphology [3],also measured
[Cl-].c1ccc(-c2cccc[c]2[Ir+][c]2ccccc2-c2ccccn2)nc1.c1ccc(N(c2ccccn2)c2c3ccccc3cc3ccccc23)nc1 [Complex 1],1160 ± 60,180 ± 50,13600 ± 80,11.7,75.5,0.75,,,,
[Cl-].c1ccc(N(c2ccccn2)c2c3ccccc3cc3ccccc23)nc1.c1cnc2c(c1)ccc1ccc[c]([Ir+][c]3cccc4ccc5cccnc5c34)c12 [Complex 3],1350 ± 80,400 ± 80,18900 ± 120,14.0,47.2,1.73,,,,
c1ccc(N(c2ccccn2)c2c3ccccc3cc3ccccc23)nc1 [Complex L1],,,,,,,> 50000,1.2,apoptotic or necrotic cells were not detected,
c1ccc(N(c2ccccn2)c2c3ccccc3nc3ccccc23)nc1 [Complex L2],,,,,,,> 50000,0.59,apoptotic or necrotic cells were not detected,
[Ir(bzq)2(dpa-acr)]^+ [Complex 4],> 5000,390 ± 90,43380 ± 140,,,1.24,,,,"Cell death pathway [4]: triggers the apoptotic pathway; ROS generation (DHE) [5]: concentration-dependent ROS generation; Cell distribution G0-G1 ([6]; A549, dark, 10.9 μM (25% IC50)): 72.4%; Cell distribution G2-M ([6]; A549, dark, 10.9 μM (25% IC50)): 13.5%; Cell distribution S ([6]; A549, dark, 10.9 μM (25% IC50)): 14.1%; Cell distribution G0-G1 [6, 11]: 73.7%; Cell distribution G2-M [6, 11]: 14.0%; Cell distribution S [6, 11]: 12.3%; Cell cycle arrest ([6]; A549, ¼ IC50, dark and irradiation at 470 nm): not capable of stopping the cell cycle at any of its phases"
